Results from ChEMBL document CHEMBL2407073, “RCAI-61 and related 6'-modified analogs of KRN7000: their synthesis and bioactivity for mouse lymphocytes to produce interferon-γ in vivo” (Bioorg Med Chem, 2013).
Activity calls are given as the source filed them.

Columns and labels:
Format in all cases: functional, organism-based
Mus musculus [1] = test: Immunostimulatory activity in C57BL/6J mouse assessed as increase in production of IL-12p70 in serum at 2 ug, iv measured at 3 to 6 hrs by cytometric bead array method
Mus musculus [2] = test: Immunostimulatory activity in C57BL/6J mouse assessed as increase in production of IL-4 in serum at 2 ug, iv measured at 3 hrs by cytometric bead array method
Mus musculus [3] = test: Immunostimulatory activity in C57BL/6J mouse assessed as increase in production of IFNgamma in serum at 2 ug, iv by ELISA
Mus musculus [4] = test: Immunostimulatory activity in iv dosed C57BL/6J mouse assessed as increase in production of IL-4 in serum measured at 3 hrs by cytometric bead array method
Mus musculus [5] = test: Immunostimulatory activity in C57BL/6J mouse assessed as increase in production of IFNgamma in serum at 0.02 ug, iv by ELISA
Mus musculus [6] = test: Immunostimulatory activity in C57BL/6J mouse assessed as increase in production of IL-4 in serum at 0.02 to 2 ug, iv measured at 3 hrs by cytometric bead array method

Measured: Activity

CCCCCCCCCCCCCCCCCCCCCCCCCC(=O)N[C@@H](CO[C@H]1O[C@H](CF)[C@H](O)[C@H](O)[C@H]1O)[C@H](O)[C@H](O)CCCCCCCCCCCCCC
active: Mus musculus [1] | Mus musculus [2] | Mus musculus [3]

CCCCCCCCCCCCCCCCCCCCCCCCCC(=O)N[C@@H](CO[C@H]1O[C@H](COCCO)[C@H](O)[C@H](O)[C@H]1O)[C@H](O)[C@H](O)CCCCCCCCCCCCCC
active: Mus musculus [1] | Mus musculus [2] | Mus musculus [3]

CCCCCCCCCCCCCCCCCCCCCCCCCC(=O)N[C@@H](CO[C@H]1O[C@H](COCCC)[C@H](O)[C@H](O)[C@H]1O)[C@H](O)[C@H](O)CCCCCCCCCCCCCC
active: Mus musculus [1] | Mus musculus [2] | Mus musculus [3]

CCCCCCCCCCCCCCCCCCCCCCCCCC(=O)N[C@@H](CO[C@H]1OC[C@H](O)[C@H](O)[C@H]1O)[C@H](O)[C@H](O)CCCCCCCCCCCCCC
active: Mus musculus [1] | Mus musculus [2] | Mus musculus [3]

CCCCCCCCCCCCCCCCCCCCCCCCCC(=O)N[C@@H](CO[C@H]1O[C@H](CC)[C@H](O)[C@H](O)[C@H]1O)[C@H](O)[C@H](O)CCCCCCCCCCCCCC
active: Mus musculus [1] | Mus musculus [2] | Mus musculus [3]

CCCCCCCCCCCCCCCCCCCCCCCCCC(=O)N[C@@H](CO[C@H]1O[C@H](COC)[C@H](O)[C@H](O)[C@H]1O)[C@H](O)[C@H](O)CCCCCCCCCCCCCC
active: Mus musculus [4] Dose-dependent effect | Mus musculus [5] | Mus musculus [1] | Mus musculus [2] | Mus musculus [3]

CCCCCCCCCCCCCCCCCCCCCCCCCC(=O)N[C@@H](CO[C@H]1O[C@H](CO)[C@H](O)[C@H](O)[C@H]1O)[C@H](O)[C@H](O)CCCCCCCCCCCCCC
active: Mus musculus [6] | Mus musculus [1] | Mus musculus [2] | Mus musculus [3]

CCCCCCCCCCCCCCCCCCCCCCCCCC(=O)N[C@@H](CO[C@H]1O[C@H](C)[C@H](O)[C@H](O)[C@H]1O)[C@H](O)[C@H](O)CCCCCCCCCCCCCC
active: Mus musculus [1] | Mus musculus [2] | Mus musculus [3]

CCCCCCCCCCCCCCCCCCCCCCCCCC(=O)N[C@@H](CO[C@H]1O[C@H](COCC)[C@H](O)[C@H](O)[C@H]1O)[C@H](O)[C@H](O)CCCCCCCCCCCCCC
active: Mus musculus [1] | Mus musculus [2] | Mus musculus [3]

CCCCCCCCCCCCCCCCCCCCCCCCCC(=O)N[C@@H](CO[C@H]1O[C@H](COCOC)[C@H](O)[C@H](O)[C@H]1O)[C@H](O)[C@H](O)CCCCCCCCCCCCCC
active: Mus musculus [1] | Mus musculus [2] | Mus musculus [3]

CCCCCCCCCCCCCCCCCCCCCCCCCC(=O)N[C@@H](CO[C@H]1O[C@H](COCOCCOC)[C@H](O)[C@H](O)[C@H]1O)[C@H](O)[C@H](O)CCCCCCCCCCCCCC
active: Mus musculus [1] | Mus musculus [2] | Mus musculus [3]
